# Publication PMC11500415, “Chemical inhibition of stomatal differentiation by perturbation of the master-regulatory bHLH heterodimer via an ACT-Like domain” (Nature Communications, 2024)
# Tests used:
# Design in all cases: species or system A. thaliana
# FAMA_ACTL = target: T1, FAMA_ACTL (Arabidopsis thaliana, UniProt Q56YJ8); assay: ITC direct binding
# T1 construct: FAMA-ACTL (306-414); GST (N, cleaved yes); made in house; host or cells: E. coli BL21
# Source text: (§1) A. thaliana SCRM (1-494), ΔNSPCH (98-364), MUTE (1-202), ΔNFAMA (190-414), MUTEΔC (1-114), MUTER133A_R134A, MUTEE162A_E163A, MUTER133A_R134A_E162A_E163A, SCRM-ACTL (405-494), MUTE-ACTL (114-202), SPCH-ACTL (285-364), FAMA-ACTL (306-414), MUTE_ACTLR133A_R134A, MUTE_ACTLE162A_E163A, MUTE_ACTLR133A_R134A_E162A_E163A were cloned into pGEX-4T-1 vector with an N-terminal GST tag and a thrombin cleavage sequence. For protein expression, the constructs were transformed into E. coli strain BL21. For each transformant, a single colony was selected and incubated in 10 ml LB liquid media. The overnight-incubated E. coli suspensions were transferred to 1 L LB medium and incubated at 37 °C for around 2 h until the OD600 reached 0.4–0.6. The isopropyl β-D-1-thiogalactopyranoside ([…] of final concentration) was added to the cultures and the strains were incubated at 22 °C for a further 18 h. GST-fused proteins were purified using glutathione agarose resin. The soluble portion of the cell lysate was loaded onto a GST-Sepharose column. Nonspecifically bound proteins were removed by washing the column with 20 mM Tris pH 8.0, 200 mM NaCl. The bound GST-fused protein was eluted with 10 mm glutathione and 20 mM Tris pH 8.0, 200 mM NaCl. The GST-fused proteins were exchanged with phosphate-buffered saline buffer, and then the solution was treated with 50 μg of thrombin for 10–12 h at 16 ^οC. The GST portion of the protein was cleaved during thrombin digestion, and then the whole solution was reloaded onto the glutathione S-transferase column to obtain pure protein. The purified proteins were further purified by gel filtration on a Superdex-200 (GE) column using fast protein liquid chromatography and phosphate buffer (pH 7.2) as the eluent. The purity of the protein was checked by SDS-PAGE. For detailed lists of oligo DNA and plasmid information, see Supplementary Tables 5, 6, respectively.
# (§2) Binding of the small molecule Stomidazolone (3) to SCRM, MUTE, SPCH, FAMA, MUTEΔC, MUTE_ACTL, SCRM_ACTL, SPCH_ACTL and FAMA_ACTL, MUTER133A_R134A, MUTEE162A_E163A, MUTER133A_R134A_E162A_E163A, as well as SCRM binding to MUTE in the presence and absence of Stomidazolone (3) / AYSJ1059 (5) /AYSJ1061 (6) was characterized at 30 °C using a Malvern PEAQ-ITC microcalorimeter. All the protein samples were dialyzed overnight using PBS buffer containing 2% DMSO and 1 mM DTT. Stomidazolone was dissolved in PBS buffer containing 2% DMSO and 1 mM DTT. Titrations were performed by injecting 1 × 0.5-μL and 12 × 3-μL or 1 × 0.75-μL and 18 × 2-μL or 1 × 0.2-μL and 25 × 1.3-μL aliquots of 1 mM Stomidazolone / AYSJ1059 / AYSJ1061 to 5-30 μM of protein in PBS buffer pH 7.4, containing 2% DMSO and 1 mM DTT. All titrations were carried out at least twice. The raw data were corrected using buffer and protein controls and analyzed using the software supplied by the manufacturer. See Supplementary Table 3 for details.
# SCRM [1] = target: T2, SCRM (Arabidopsis thaliana, UniProt Q9LSE2); assay: ITC direct binding
# T2 construct: SCRM (1-494); made in house; host or cells: E. coli BL21
# T2 sequence (Q9LSE2 1-494): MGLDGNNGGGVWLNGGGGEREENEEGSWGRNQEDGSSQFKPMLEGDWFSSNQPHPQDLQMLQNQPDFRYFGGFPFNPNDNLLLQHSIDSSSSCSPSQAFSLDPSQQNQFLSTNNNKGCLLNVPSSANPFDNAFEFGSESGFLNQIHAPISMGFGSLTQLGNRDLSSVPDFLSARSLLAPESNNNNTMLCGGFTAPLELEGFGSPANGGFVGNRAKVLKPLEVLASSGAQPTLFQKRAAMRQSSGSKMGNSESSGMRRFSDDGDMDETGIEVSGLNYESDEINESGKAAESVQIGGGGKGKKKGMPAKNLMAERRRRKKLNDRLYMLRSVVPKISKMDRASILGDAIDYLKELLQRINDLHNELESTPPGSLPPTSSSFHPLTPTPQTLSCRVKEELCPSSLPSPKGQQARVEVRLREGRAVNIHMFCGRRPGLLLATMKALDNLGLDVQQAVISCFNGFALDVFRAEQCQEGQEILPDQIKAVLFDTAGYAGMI
# Source text: as §1, §2
# SCRM [2] = target: T2, SCRM; assay: BLI direct binding
# Source text: as §1
# The binding affinities of SCRM to MUTE / MUTER133A_R134A / MUTEE162A_E163A / MUTER133A_R134A_E162A_E163A in presence and absence of Stomidazolone (3) and its analogues (AYSJ1059 (5) and AYSJ1061 (6)), and Stomidazolone / AYSJ1059 / AYSJ1061 interactions with GST-tagged SCRM, MUTE, SPCH, FAMA, MUTE ΔACTL, MUTE_ACTL, SCRM_ACTL, SPCH_ACTL and FAMA_ACTL, MUTER133A_134A, MUTEE162A_E163A, MUTER133A_R134A_E162A_E163A were measured using the Octet Red96 system (ForteBio, Pall Life Sciences) following the manufacturer’s protocols. The optical probes coated with anti-GST were first loaded with 500 nM GST tagged proteins before kinetic binding analyses. The experiment was performed in 96-well plates maintained at 30 °C. Each well was loaded with 200 μL reaction volume for the experiment. The binding buffer used in these experiments contained 1× PBS supplemented with 2% DMSO, 0.02% Tween20. […] There was no binding of the analytes to the unloaded probes as shown by the control wells. Binding kinetics to all seven concentrations of the analytes were measured simultaneously using default parameters on the instrument. The data were analyzed using the Octet data analysis software. The association and dissociation curves were fit with the 1:1 homogeneous ligand model. The kobs (observed rate constant) values were used to calculate Kd, with steady-state analysis of the direct binding. See Supplementary Table 3 for details.
# T1 sequence (Q56YJ8 306-414): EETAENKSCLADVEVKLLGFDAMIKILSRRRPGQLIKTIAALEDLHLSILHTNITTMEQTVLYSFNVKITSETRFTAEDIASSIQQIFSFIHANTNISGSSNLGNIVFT
structure (smiles),measurement,setting,value
O=C1C(c2ccccc2)=NC(NS(=O)(=O)c2ccccc2)(c2ccccc2)N1S(=O)(=O)c1ccccc1 (stereo not drawn) [Stomidazolone],-T△S,FAMA_ACTL,4.8 ± 0.2
same,Kd,FAMA_ACTL,110 ± 13.8 µM
same,△H,FAMA_ACTL,-8.2 ± 0.5
same,-T△S,SCRM [1],4.1 ± 0.2
same,Kd,SCRM [1],71.5 ± 5.1 µM
same,△G,SCRM [1],-4.8 ± 0.2
same,△H,SCRM [1],-8.9 ± 0.2
same,Kd,"SCRM [2]; BLI steady state, read-out: KD (SS)",68.5 ± 5.6 µM
same,Kd,"SCRM [2]; BLI, read-out: KD",65.5 ± 0.6 µM
